Measured values taken from ChEMBL document CHEMBL4689842, “EUbOPEN Chemogenomics Library wave 1” (2021).

Tests used:
Format in all cases: toxicity, cell-based
HEK-293T = assay: Incucyte cell viability with HEK293T; settings: human, 10 µM, compound concentration 10 uM
Fibroblast = assay: Incucyte cell viability with human fibroblast; settings: 10 µM, compound concentration 10 uM
U2OS = assay: Incucyte cell viability with U2OS; settings: human, 10 µM, compound concentration 10 uM
[1] = 0 h, replicate number 1, timepoint 0 hours
[2] = 0 h, replicate number 2, timepoint 0 hours
[3] = 6 h, replicate number 1, timepoint 6 hours
[4] = 6 h, replicate number 2, timepoint 6 hours
[5] = 12 h, replicate number 1, timepoint 12 hours
[6] = 18 h, replicate number 1, timepoint 18 hours
[7] = 24 h, replicate number 1, timepoint 24 hours
[8] = 18 h, replicate number 2, timepoint 18 hours
[9] = 12 h, replicate number 2, timepoint 12 hours
[10] = 24 h, replicate number 2, timepoint 24 hours
Further: filed as whole numbers so only -1 and 0 and 1 occur.

c1cc(CN2CCCNCCNCCCNCC2)ccc1CN1CCCNCCNCCCNCC1 [PLERIXAFOR]
Growth Rate (HEK-293T; [1]): 1
Growth Rate (HEK-293T; [2]): 0
Growth Rate (HEK-293T; [3]): 0
Growth Rate (HEK-293T; [4]): 1
Growth Rate (HEK-293T; [5]): 0
Growth Rate (HEK-293T; [6]): 0
Growth Rate (HEK-293T; [7]): 0
Growth Rate (Fibroblast; [1]): 0
Growth Rate (Fibroblast; [2]): 1
Growth Rate (Fibroblast; [3]): 1
Growth Rate (Fibroblast; [4]): 0
Growth Rate (Fibroblast; [5]): 0
Growth Rate (Fibroblast; [6]): 1
Growth Rate (Fibroblast; [8]): 0
Growth Rate (Fibroblast; [7]): 0
Growth Rate (U2OS; [3]): 0
Growth Rate (U2OS; [5]): 1
Growth Rate (U2OS; [9]): 0
Growth Rate (U2OS; [6]): 1
Growth Rate (U2OS; [8]): 0
Growth Rate (U2OS; [7]): 1
Growth Rate (U2OS; [10]): 0

Cl.O=C(Cc1ccc(Cl)c(Cl)c1)N1CCCC[C@H]1CN1CCCC1
Growth Rate (HEK-293T; [2]): 0
Growth Rate (HEK-293T; [3]): 0
Growth Rate (HEK-293T; [5]): 0
Growth Rate (HEK-293T; [6]): 0
Growth Rate (HEK-293T; [8]): 1
Growth Rate (HEK-293T; [7]): 0
Growth Rate (Fibroblast; [1]): 0
Growth Rate (Fibroblast; [2]): 1
Growth Rate (U2OS; [1]): 0
Growth Rate (U2OS; [4]): 1
Growth Rate (U2OS; [5]): 1
Growth Rate (U2OS; [6]): 1
Growth Rate (U2OS; [7]): 1

Cc1ccc2[nH]c(CNCCCc3ccncc3)cc(=O)c2c1 [UCSF924NC]
Growth Rate (HEK-293T; [1]): 1
Growth Rate (HEK-293T; [2]): 0
Growth Rate (HEK-293T; [3]): 0
Growth Rate (HEK-293T; [4]): 1
Growth Rate (HEK-293T; [5]): 0
Growth Rate (HEK-293T; [9]): 1
Growth Rate (HEK-293T; [6]): 0
Growth Rate (HEK-293T; [8]): 1
Growth Rate (HEK-293T; [7]): 0
Growth Rate (HEK-293T; [10]): 1
Growth Rate (Fibroblast; [1]): 1
Growth Rate (Fibroblast; [3]): 0
Growth Rate (Fibroblast; [5]): 0
Growth Rate (Fibroblast; [6]): 0
Growth Rate (Fibroblast; [7]): 0
Growth Rate (U2OS; [3]): 0
Growth Rate (U2OS; [5]): 0
Growth Rate (U2OS; [9]): 1
Growth Rate (U2OS; [6]): 0
Growth Rate (U2OS; [8]): 1
Growth Rate (U2OS; [7]): 0

CCc1cc(Nc2nccc(-c3c(-c4ccc(OC)c(C(=O)Nc5c(F)cccc5F)c4)nc4ccccn34)n2)c(OC)cc1N1CCC(N2CCN(S(C)(=O)=O)CC2)CC1
Growth Rate (HEK-293T; [1]): 1
Growth Rate (HEK-293T; [2]): 0
Growth Rate (HEK-293T; [3]): 0
Growth Rate (HEK-293T; [5]): 0
Growth Rate (HEK-293T; [9]): 1
Growth Rate (HEK-293T; [6]): 0
Growth Rate (HEK-293T; [7]): 0
Growth Rate (HEK-293T; [10]): 1
Growth Rate (Fibroblast; [1]): 1
Growth Rate (Fibroblast; [3]): 1
Growth Rate (Fibroblast; [4]): 0
Growth Rate (Fibroblast; [5]): 1
Growth Rate (Fibroblast; [9]): 0
Growth Rate (Fibroblast; [6]): 1
Growth Rate (Fibroblast; [8]): 0
Growth Rate (Fibroblast; [7]): 1
Growth Rate (Fibroblast; [10]): 0
Growth Rate (U2OS; [3]): 1
Growth Rate (U2OS; [5]): 1
Growth Rate (U2OS; [6]): 1
Growth Rate (U2OS; [8]): 0
Growth Rate (U2OS; [7]): 1

COc1cc(C#N)ccc1S(=O)(=O)Nc1ccc2c(c1)cc(C)c(=O)n2C
Growth Rate (HEK-293T; [1]): 1
Growth Rate (HEK-293T; [3]): 0
Growth Rate (HEK-293T; [5]): 0
Growth Rate (HEK-293T; [6]): 0
Growth Rate (HEK-293T; [8]): 1
Growth Rate (HEK-293T; [7]): 0
Growth Rate (Fibroblast; [2]): 0
Growth Rate (Fibroblast; [3]): 1
Growth Rate (Fibroblast; [4]): 0
Growth Rate (Fibroblast; [5]): 0
Growth Rate (Fibroblast; [6]): 0
Growth Rate (Fibroblast; [7]): 1
Growth Rate (Fibroblast; [10]): 0
Growth Rate (U2OS; [1]): 0
Growth Rate (U2OS; [3]): 0
Growth Rate (U2OS; [4]): 1
Growth Rate (U2OS; [5]): 0
Growth Rate (U2OS; [9]): 1
Growth Rate (U2OS; [6]): 0
Growth Rate (U2OS; [8]): 1
Growth Rate (U2OS; [7]): 0
Growth Rate (U2OS; [10]): 1

Cc1c(C2=CCN(C(=O)N(C)C(C)C)CC2)nnn1-c1cccnc1F
Growth Rate (HEK-293T; [1]): 0
Growth Rate (HEK-293T; [3]): 1
Growth Rate (HEK-293T; [5]): 1
Growth Rate (HEK-293T; [6]): 0
Growth Rate (HEK-293T; [8]): 1
Growth Rate (HEK-293T; [7]): 1
Growth Rate (Fibroblast; [1]): 1
Growth Rate (Fibroblast; [2]): 0
Growth Rate (Fibroblast; [3]): 0
Growth Rate (Fibroblast; [5]): 0
Growth Rate (Fibroblast; [9]): 1
Growth Rate (Fibroblast; [6]): 0
Growth Rate (Fibroblast; [8]): 1
Growth Rate (Fibroblast; [7]): 0
Growth Rate (Fibroblast; [10]): 1
Growth Rate (U2OS; [1]): 0
Growth Rate (U2OS; [4]): 0
Growth Rate (U2OS; [5]): 1
Growth Rate (U2OS; [6]): 1
Growth Rate (U2OS; [7]): 1
